The target of experiment [1] is T1, Kinesin-like protein KIFC1 (Homo sapiens) (UniProt Q9BW19).
T1 sequence (whole entry): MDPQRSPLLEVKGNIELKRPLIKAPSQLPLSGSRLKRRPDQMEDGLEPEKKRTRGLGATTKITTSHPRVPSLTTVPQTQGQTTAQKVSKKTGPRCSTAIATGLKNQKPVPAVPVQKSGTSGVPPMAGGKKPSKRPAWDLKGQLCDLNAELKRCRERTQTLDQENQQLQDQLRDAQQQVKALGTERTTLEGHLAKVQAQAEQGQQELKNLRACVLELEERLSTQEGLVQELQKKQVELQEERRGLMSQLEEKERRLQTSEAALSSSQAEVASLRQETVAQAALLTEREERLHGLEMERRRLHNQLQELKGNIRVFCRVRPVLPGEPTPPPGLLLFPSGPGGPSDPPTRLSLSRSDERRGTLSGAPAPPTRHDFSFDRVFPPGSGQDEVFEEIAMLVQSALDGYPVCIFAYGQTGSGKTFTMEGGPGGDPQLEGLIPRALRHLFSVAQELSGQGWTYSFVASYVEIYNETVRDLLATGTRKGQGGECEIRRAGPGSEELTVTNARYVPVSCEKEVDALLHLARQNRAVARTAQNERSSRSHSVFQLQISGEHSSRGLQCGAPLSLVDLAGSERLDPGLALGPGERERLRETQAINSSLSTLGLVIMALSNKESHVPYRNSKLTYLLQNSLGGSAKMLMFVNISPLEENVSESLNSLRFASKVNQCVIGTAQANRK
The experiment in a line: Inhibition of recombinant His6-tagged HSET (unknown origin) assessed as reduction in Alexa-594 labelled microtubule gliding at 30 uM measured every 2 secs for 20 secs by epifluorescence microscopic analysis relative to control.

The target of experiment [2] is T2, Kinesin-like protein KIF18A (Homo sapiens) (UniProt Q8NI77).
T2 sequence (whole entry): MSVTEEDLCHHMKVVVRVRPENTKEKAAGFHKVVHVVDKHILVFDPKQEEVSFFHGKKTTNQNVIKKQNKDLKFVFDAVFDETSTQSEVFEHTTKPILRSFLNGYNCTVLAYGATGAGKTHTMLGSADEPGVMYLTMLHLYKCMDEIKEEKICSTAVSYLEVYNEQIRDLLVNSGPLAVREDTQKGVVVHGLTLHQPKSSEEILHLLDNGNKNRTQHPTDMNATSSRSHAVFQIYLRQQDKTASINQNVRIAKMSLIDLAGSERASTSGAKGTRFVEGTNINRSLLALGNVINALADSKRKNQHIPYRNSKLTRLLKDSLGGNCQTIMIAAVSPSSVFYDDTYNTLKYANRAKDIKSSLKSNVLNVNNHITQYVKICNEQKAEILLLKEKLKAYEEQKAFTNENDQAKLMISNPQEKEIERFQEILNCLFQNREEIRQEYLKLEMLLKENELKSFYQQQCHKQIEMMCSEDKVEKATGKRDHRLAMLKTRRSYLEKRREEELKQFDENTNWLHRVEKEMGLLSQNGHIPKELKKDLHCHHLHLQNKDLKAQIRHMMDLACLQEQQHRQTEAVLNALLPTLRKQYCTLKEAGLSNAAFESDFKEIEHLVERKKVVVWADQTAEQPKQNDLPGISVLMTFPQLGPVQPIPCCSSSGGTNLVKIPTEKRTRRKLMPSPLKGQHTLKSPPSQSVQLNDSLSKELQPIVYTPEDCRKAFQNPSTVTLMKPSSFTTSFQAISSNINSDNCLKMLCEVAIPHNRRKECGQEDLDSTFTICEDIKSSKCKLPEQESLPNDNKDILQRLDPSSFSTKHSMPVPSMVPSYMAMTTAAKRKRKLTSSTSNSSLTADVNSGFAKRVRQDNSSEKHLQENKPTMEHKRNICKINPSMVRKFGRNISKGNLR
Kind of experiment: Inhibition of Kif18A (unknown origin) assessed as reduction in Alexa-594 labelled microtubule gliding at 30 uM measured every 2 secs for 20 secs by epifluorescence microscopic analysis relative to control.

Turning to `O=C1Nc2ccc(C(=O)c3ccco3)cc2/C1=C/c1cc(Cl)c(O)c(Cl)c1`, the inhibition in experiment [1] turned out to be 5.3%; in experiment [2], 4.9%.
